# Laboratory results as given in patent US20090105251A1, “Renin inhibitors” (priority 2007, published 2009).
# pIC50: −log10 of the molar value.
# Target: T1, Recombinant human renin (Homo sapiens, UniProt P00797)
# T1 construct: isolate the active form (residues 67-406); made in house
# T1 sequence (P00797 67-406): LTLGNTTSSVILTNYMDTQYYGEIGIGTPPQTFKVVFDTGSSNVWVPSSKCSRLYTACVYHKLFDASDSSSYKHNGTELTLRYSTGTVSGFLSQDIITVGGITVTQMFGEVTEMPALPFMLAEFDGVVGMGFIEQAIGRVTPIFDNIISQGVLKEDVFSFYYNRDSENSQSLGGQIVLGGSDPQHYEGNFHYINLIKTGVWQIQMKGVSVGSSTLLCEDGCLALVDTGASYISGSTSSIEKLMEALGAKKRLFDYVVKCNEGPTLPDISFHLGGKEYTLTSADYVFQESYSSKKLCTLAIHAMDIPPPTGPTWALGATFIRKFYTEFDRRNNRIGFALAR
# Assay: In vitro enzymatic activity assay of renin inhibitors (fluorogenic peptide substrate)
# Type: biochemical
# Settings: recombinant human renin 3 nM, 1 μM substrate QXL520/HiLyteFluo488 peptide, pH 7.4, 37° C., fluorescence; values given as ranges; read-out: IC50 of Exemplified Compounds Against Renin, IC50
# Source text: Test compounds in varying concentrations may be reacted with recombinant human renin in the presence of substrate, e.g., QXL520-γ-Abu-Ile-His-Pro-Phe-His-Leu-Val-Ile-His-Thr-Lys (HiLyteFluo488)-Arg-OH (Anaspec, San Jose, Calif.). The reaction can be followed kinetically using fluorescence (excitation λ=485 nm; emission λ=538 nm). Inhibition constants (IC50) may be calculated by non-linear curve fitting of the compound concentrations and fluorescence intensities to the standard IC50 equation.
# Solutions of test compounds in varying concentrations (≦2 mM final concentration) are prepared in dimethyl sulfoxide (DMSO) and then diluted into assay buffer comprising 50 mM Hepes, 1 mM EDTA, 1 mM DTT, 0.1 mg/ml BSA, 0.01% Brij35, pH 7.4. Alternatively, the assay can be performed with a high BSA concentration, wherein the buffer contains an additional 2% BSA.
# Recombinant human renin (3 nM final concentration) is added to the dilutions and pre-incubated with the compounds for 10 minutes at 37° C. As described in Examples A-C above, human renin can be obtained by expressing preprorenin (residue 1-406) in mammalian cells, treating the prorenin (residues 24-406) contained in the culture supernatant with trypsin, and isolate the active form (residues 67-406). After pre-incubation, the reaction is initiated with 1 μM of substrate QXL520-γ-Abu-Ile-His-Pro-Phe-His-Leu-Val-Ile-His-Thr-Lys (HiLyteFluo488)-Arg-OH (Anaspec, San Jose, Calif.). The final DMSO in the assay is 5%. The total volume of the reaction mixture is 20 μL, which can be placed on Greiner 384-well small volume plates.
# Renin activity may be determined via fluorescence (excitation λ=485 nm; emission λ=538 nm), e.g., on a Molecular Devices SPECTROmax GEMINI XPS. The fluorescence intensity is determined upon the addition of substrate and determined again after incubation at 37° C. for one hour. The fluorescence intensity of a blank (no inhibition) using vehicle alone is also determined. Renin activity is linearly proportional to the change in fluorescence observed (final−initial).
# The percent inhibition of renin at a given compound concentration is defined as:
# 100%×[1−(Fcompound/Fblank)]
# where Fcompound is the observed fluorescence at a given concentration of test compound and Fblank is the observed fluorescence in the presence of vehicle alone.
# The pIC50 value (negative log of the molar concentration of the compound that produces 50% inhibition) of a test compound is calculated by non-linear least squares curve fitting of the equation:
# Percent Inhibition=100%/(1+(10^−pIC50/10^log [I]))
# to percent inhibition versus compound concentration. The 50% inhibitory concentration (IC50) of a test compound is calculated by raising 10 to the negative pIC50 (10^−pIC50).
row,Compound,pIC50
1,"COc1ccc(C(=O)c2ccccc2C(=O)N2CCNC[C@H]2Cc2ccccc2)cc1 [Example 25, (R)-(2-benzylpiperazin-1-yl)(2-(4-methoxybenzoyl)phenyl)methanone]",4.00 to 4.30
2,"O=C(c1cc(-c2ccc(Cl)cc2)cs1)N1CCNC[C@H]1Cc1ccccc1 [Example 36, (R)-(2-benzylpiperazin-1-yl)(4-(4-chlorophenyl)thiophen-2-yl)methanone]",4.30 to 6.00
3,"O=C(c1ccccc1-c1nc2ccccc2s1)N1CCNC[C@H]1Cc1ccccc1 [Example 32, (R)-(2-(benzo[d]thiazol-2-yl)phenyl)(2-benzylpiperazin-1-yl)methanone]",4.30 to 6.00
4,"O=C(c1c(-c2ccccc2Cl)noc1C1CC1)N1CCNC[C@H]1Cc1ccccc1 [Example 33, ((R)-2-benzylpiperazin-1-yl)(3-(2-chlorophenyl)-5-cyclopropylisoxazol-4-yl)methanone]",4.30 to 6.00
5,"O=C(c1ccccc1-c1ccccc1)N1CCNC[C@H]1Cc1ccccc1 [Example 4, (R)-(2-benzylpiperazin-1-yl)(biphenyl-2-yl)methanone]",4.30 to 6.00
6,"O=C(c1ccccc1OCc1ccccc1)N1CCNC[C@H]1Cc1ccccc1 [Example 23, (R)-(2-(benzyloxy)phenyl)(2-benzylpiperazin-1-yl)methanone]",4.30 to 6.00
7,"O=C(c1nccn1-c1ccccc1C(F)(F)F)N1CCNC[C@H]1Cc1ccccc1 [Example 8, ((R)-2-benzylpiperazin-1-yl)(1-(2-(trifluoromethyl)phenyl)-1H-imidazol-2-yl)methanone]",4.00 to 4.30
8,"O=C(c1ccnn1-c1ccccc1)N1CCNC[C@H]1Cc1ccccc1 [Example 6, (R)-(2-benzylpiperazin-1-yl)(1-phenyl-1H-pyrazol-5-yl)methanone]",4.30 to 6.00
9,"Cc1noc(-c2ccccc2)c1C(=O)N1CCNC[C@H]1Cc1ccccc1 [Example 29, (R)-(2-benzylpiperazin-1-yl)(3-methyl-5-phenylisoxazol-4-yl)methanone]",4.00 to 4.30
10,"O=C(c1ccsc1-c1ccccc1-c1ccccc1)N1CCNC[C@H]1Cc1ccccc1 [Example 19, ((R)-2-benzylpiperazin-1-yl)(2-(biphenyl-2-yl)-thiophen-3-yl)-methanone]",4.30 to 6.00
11,"O=C(c1cncn1-c1cccc2ccccc12)N1CCNC[C@H]1Cc1ccccc1 [Example 26, ((R)-2-benzylpiperazin-1-yl)(1-(naphthalen-1-yl)-1H-imidazol-5-yl)methanone]",< 4.00
12,"O=C(c1ccccc1-c1ccccc1Cl)N1CCNC[C@H]1Cc1ccccc1 [Example 5, ((R)-2-benzylpiperazin-1-yl)(2′-chlorobiphenyl-2-yl)methanone]",4.30 to 6.00
13,"CC(=O)NCc1cccnc1Oc1ccccc1-c1ccsc1C(=O)N1CCNC[C@H]1Cc1ccccc1 [Example 40, N-((2-(2-(2-((R)-2-benzylpiperazine-1-carbonyl)thiophen-3-yl)phenoxy)pyridin-3-yl)methyl)acetamide]",4.30 to 6.00
14,"O=C(c1ccccc1-c1ccc(F)cc1)N1CCNC[C@H]1Cc1ccccc1 [Example 31, (R)-(2-benzylpiperazin-1-yl)(4′-fluorobiphenyl-2-yl)methanone]",4.30 to 6.00
15,"O=C(c1ccc(F)cc1-c1ccccc1Oc1ccccc1)N1CCNC[C@H]1Cc1ccccc1 [Example 15, ((R)-2-benzylpiperazin-1-yl)(5-fluoro-2′-phenoxybiphenyl-2-yl)methanone]",4.30 to 6.00
16,"O=C(c1ncoc1-c1ccccc1)N1CCNC[C@H]1Cc1ccccc1 [Example 7, (R)-(2-benzylpiperazin-1-yl)(5-phenyloxazol-4-yl)methanone]",4.30 to 6.00
17,"O=C(c1ccc(-c2ccccc2Oc2ccccc2)s1)N1CCNC[C@H]1Cc1ccccc1 [Example 44, (R)-(2-benzylpiperazin-1-yl)(5-(2-phenoxyphenyl)thiophen-2-yl)methanone]",4.30 to 6.00
18,"O=C(c1cc(-c2ccccc2Oc2ccccc2)cs1)N1CCNC[C@H]1Cc1ccccc1 [Example 43, (R)-(2-benzylpiperazin-1-yl)(4-(2-phenoxyphenyl)thiophen-2-yl)methanone]",4.30 to 6.00
19,"O=C(c1ccccc1)c1ccccc1C(=O)N1CCNC[C@H]1Cc1ccccc1 [Example 22, (R)-(2-benzoylphenyl)(2-benzylpiperazin-1-yl)methanone]",4.30 to 6.00
20,"O=C(c1ccccc1Cc1ccccc1)N1CCNC[C@H]1Cc1ccccc1 [Example 21, (R)-(2-benzylphenyl)(2-benzylpiperazin-1-yl)methanone]",4.30 to 6.00
21,"O=C(c1nnc(-c2ccccc2-c2ccccc2)o1)N1CCNC[C@H]1Cc1ccccc1 [Example 46, (R)-(2-benzylpiperazin-1-yl)(5-(biphenyl-2-yl)-1,3,4-oxadiazol-2-yl)methanone]",4.30 to 6.00
22,"O=C(c1cccn1-c1ccccc1Oc1ccccc1)N1CCNC[C@H]1Cc1ccccc1 [Example 42, ((R)-2-benzylpiperazin-1-yl)(1-(2-phenoxyphenyl)-1H-pyrrol-2-yl)methanone]",4.30 to 6.00

# More lines, now with the values ahead:
row,pIC50,Compound
1,> 6.00,"Cc1ccc(-c2ccccc2C(=O)N2CCNC[C@H]2Cc2ccccc2)cc1C [Example 3, (R)-(2-benzylpiperazin-1-yl)(3′,4′-dimethylbiphenyl-2-yl)methanone]"
2,4.30 to 6.00,"O=C(c1ccsc1-c1ccccc1CN1CCOCC1)N1CCNC[C@H]1Cc1ccccc1 [Example 41, ((R)-2-benzylpiperazin-1-yl)(2-(2-(morpholinomethyl)phenyl)-thiophen-3-yl)methanone]"
3,4.30 to 6.00,"O=C(c1cncn1-c1ccccc1-c1ccccc1)N1CCNC[C@H]1Cc1ccccc1 [Example 27, ((R)-2-benzylpiperazin-1-yl)(1-(biphenyl-2-yl)-1H-imidazol-5-yl)methanone]"
4,4.30 to 6.00,"O=C(c1cc(F)ccc1-c1ccccc1Oc1ccccc1)N1CCNC[C@H]1Cc1ccccc1 [Example 16, ((R)-2-benzylpiperazin-1-yl)(4-fluoro-2′-phenoxybiphenyl-2-yl)methanone]"
5,4.30 to 6.00,"O=C(c1nc(-c2cccnc2)sc1-c1ccccc1)N1CCNC[C@H]1Cc1ccccc1 [Example 30, (R)-(2-benzylpiperazin-1-yl)(5-phenyl-2-(pyridin-3-yl)thiazol-4-yl)methanone]"
6,4.30 to 6.00,"CC1(C)Cc2cccc(C(=O)N3CCNC[C@H]3Cc3ccccc3)c2O1 [Example 35, (R)-(2-benzylpiperazin-1-yl)(2,2-dimethyl-2,3-dihydrobenzofuran-7-yl)methanone]"
7,4.30 to 6.00,"CCn1nc(C)c(-c2ccccc2Oc2ccccc2)c1C(=O)N1CCNC[C@H]1Cc1ccccc1 [Example 14, ((R)-2-benzylpiperazin-1-yl)(1-ethyl-3-methyl-4-(2-phenoxyphenyl)-1H-pyrazol-5-yl)methanone]"
8,> 6.00,"O=C(c1sccc1-c1ccccc1Oc1ccccc1)N1CCNC[C@H]1Cc1ccccc1 [Example 1, ((R)-2-benzylpiperazin-1-yl)(3-(2-phenoxyphenyl)thiophen-2-yl)methanone]"
9,> 6.00,"Cn1cc(-c2ccccc2Oc2ccccc2)c(C(=O)N2CCNC[C@H]2Cc2ccccc2)n1 [Example 17, ((R)-2-benzylpiperazin-1-yl)(1-methyl-4-(2-phenoxyphenyl)-1H-pyrazol-3-yl)methanone]"
10,> 6.00,"CC(=O)NCCc1ccccc1Oc1ccccc1-c1ccsc1C(=O)N1CCNC[C@H]1Cc1ccccc1 [Example 39, N-(2-(2-(2-((R)-2-benzylpiperazine-1-carbonyl)thiophen-3-yl)phenoxy)phenethyl)acetamide]"
